Data reported in patent US20200181117A1, “SUBSTITUTED 3-HETEROARYLOXY-1H-PYRAZOLES AND SALTS THEREOF AND THEIR USE AS HERBICIDAL ACTIVE SUBSTANCES” (BAYER CROPSCIENCE AKTIENGESELLSCHAFT, priority 2017, published 2020).

Key:
Format in all cases: in vivo
Viola tricolor [1] = assay: Pre-emergence herbicidal action; conditions: 1280 g/ha, scored visually after about 3 weeks vs untreated controls
Method in brief: (§1)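 Greenhouse pots with seeds under a soil layer were treated on the soil surface with compound at 1280 g/ha, formulated as WP or EC plus 0.5% additive. About 3 weeks later, visual % effect versus untreated controls was recorded.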

Matricaria inodora [2] = assay: Pre-emergence herbicidal action; conditions: 1280 g/ha, scored visually after about 3 weeks vs untreated controls
Method in brief: as §1

Abutilon theophrasti [3] = assay: Pre-emergence herbicidal action; conditions: 1280 g/ha, scored visually after about 3 weeks vs untreated controls
Method in brief: as §1

Avena fatua = assay: Pre-emergence herbicidal action; conditions: 1280 g/ha, scored visually after about 3 weeks vs untreated controls
Method in brief: as §1

Hordeum murinum [4] = assay: Pre-emergence herbicidal action; conditions: 1280 g/ha, scored visually after about 3 weeks vs untreated controls
Method in brief: as §1

Polygonum convolvulus [5] = assay: Pre-emergence herbicidal action; conditions: 1280 g/ha, scored visually after about 3 weeks vs untreated controls
Method in brief: as §1

Setaria viridis [6] = assay: Pre-emergence herbicidal action; conditions: 1280 g/ha, scored visually after about 3 weeks vs untreated controls
Method in brief: as §1

Amaranthus retroflexus [7] = assay: Pre-emergence herbicidal action; conditions: 1280 g/ha, scored visually after about 3 weeks vs untreated controls
Method in brief: as §1

Lolium rigidum [8] = assay: Pre-emergence herbicidal action; conditions: 1280 g/ha, scored visually after about 3 weeks vs untreated controls
Method in brief: as §1

Stellaria media [9] = assay: Pre-emergence herbicidal action; conditions: 1280 g/ha, scored visually after about 3 weeks vs untreated controls
Method in brief: as §1

Pharbitis purpurea [10] = assay: Pre-emergence herbicidal action; conditions: 1280 g/ha, scored visually after about 3 weeks vs untreated controls
Method in brief: as §1

Alopecurus myosuroides [11] = assay: Pre-emergence herbicidal action; conditions: 1280 g/ha, scored visually after about 3 weeks vs untreated controls
Method in brief: as §1

Echinochloa crus-galli [12] = assay: Pre-emergence herbicidal action; conditions: 1280 g/ha, scored visually after about 3 weeks vs untreated controls
Method in brief: as §1

Viola tricolor [13] = assay: Post-emergence herbicidal action; conditions: 1280 g/ha, rated visually after about 3 weeks vs untreated controls
Method in brief: (§2)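 Visual % activity versus untreated controls (100% = plants died, 0% = like controls), scored about 3 weeks after a foliar spray. Greenhouse plants in sandy loam were treated at one-leaf stage with 1280 g/ha in aqueous spray containing 0.5% additive, 600 l/ha.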

Matricaria inodora [14] = assay: Post-emergence herbicidal action; conditions: 1280 g/ha, rated visually after about 3 weeks vs untreated controls
Method in brief: as §2

Abutilon theophrasti [15] = assay: Post-emergence herbicidal action; conditions: 1280 g/ha, rated visually after about 3 weeks vs untreated controls
Method in brief: as §2

Hordeum murinum [16] = assay: Post-emergence herbicidal action; conditions: 1280 g/ha, rated visually after about 3 weeks vs untreated controls
Method in brief: as §2

Polygonum convolvulus [17] = assay: Post-emergence herbicidal action; conditions: 1280 g/ha, rated visually after about 3 weeks vs untreated controls
Method in brief: as §2

Setaria viridis [18] = assay: Post-emergence herbicidal action; conditions: 1280 g/ha, rated visually after about 3 weeks vs untreated controls
Method in brief: as §2

Amaranthus retroflexus [19] = assay: Post-emergence herbicidal action; conditions: 1280 g/ha, rated visually after about 3 weeks vs untreated controls
Method in brief: as §2

Stellaria media [20] = assay: Post-emergence herbicidal action; conditions: 1280 g/ha, rated visually after about 3 weeks vs untreated controls
Method in brief: as §2

Pharbitis purpurea [21] = assay: Post-emergence herbicidal action; conditions: 1280 g/ha, rated visually after about 3 weeks vs untreated controls
Method in brief: as §2

Alopecurus myosuroides [22] = assay: Post-emergence herbicidal action; conditions: 1280 g/ha, rated visually after about 3 weeks vs untreated controls
Method in brief: as §2

Echinochloa crus-galli [23] = assay: Post-emergence herbicidal action; conditions: 1280 g/ha, rated visually after about 3 weeks vs untreated controls
Method in brief: as §2

Lolium rigidum [24] = assay: Post-emergence herbicidal action; conditions: 1280 g/ha, rated visually after about 3 weeks vs untreated controls
Method in brief: as §2

Veronica persica = assay: Post-emergence herbicidal action; conditions: 1280 g/ha, rated visually after about 3 weeks vs untreated controls
Method in brief: as §2

Compound	herbicidal activity on Viola tricolor (Viola tricolor [1])	herbicidal activity on Matricaria inodora (Matricaria inodora [2])	herbicidal activity on Abutilon theophrasti (Abutilon theophrasti [3])	herbicidal activity on Avena fatua (Avena fatua)	herbicidal activity on Hordeum murinum (Hordeum murinum [4])	herbicidal activity on Polygonum convolvulus (Polygonum convolvulus [5])	herbicidal activity on Setaria viridis (Setaria viridis [6])	herbicidal activity on Amaranthus retroflexus (Amaranthus retroflexus [7])	herbicidal activity on Lolium rigidum (Lolium rigidum [8])	herbicidal activity on Stellaria media (Stellaria media [9])	herbicidal activity on Alopecurus myosuroides (Alopecurus myosuroides [11])	herbicidal activity on Echinochloa crus-galli (Echinochloa crus-galli [12])	herbicidal activity on Viola tricolor (Viola tricolor [13])	herbicidal activity on Matricaria inodora (Matricaria inodora [14])	herbicidal activity on Abutilon theophrasti (Abutilon theophrasti [15])	herbicidal activity on Hordeum murinum (Hordeum murinum [16])	herbicidal activity on Polygonum convolvulus (Polygonum convolvulus [17])	herbicidal activity on Setaria viridis (Setaria viridis [18])	herbicidal activity on Amaranthus retroflexus (Amaranthus retroflexus [19])	herbicidal activity on Stellaria media (Stellaria media [20])	further results
Cc1c(Sc2ccccc2)c(Oc2ncccn2)nn1C [Example I-126]	100%	100%	100%	100%	100%	100%	100%	100%	100%	100%	100%	100%	100%	80%	100%	80%	100%	100%	100%	100%	herbicidal activity on Pharbitis purpurea (Pharbitis purpurea [10]): 90%; herbicidal activity on Pharbitis purpurea (Pharbitis purpurea [21]): 100%; herbicidal activity on Alopecurus myosuroides (Alopecurus myosuroides [22]): 100%; herbicidal activity on Echinochloa crus-galli (Echinochloa crus-galli [23]): 100%
COc1cnc(Oc2nn(C)c(C)c2Sc2ccccc2)nc1 [Example I-140]	100%	100%	100%	100%	100%	100%	100%	100%	100%	100%	100%	100%	100%	100%	100%	80%	100%	100%	100%	90%	herbicidal activity on Lolium rigidum (Lolium rigidum [24]): 80%; herbicidal activity on Veronica persica (Veronica persica): 100%; herbicidal activity on Pharbitis purpurea (Pharbitis purpurea [21]): 100%; herbicidal activity on Alopecurus myosuroides (Alopecurus myosuroides [22]): 100%; herbicidal activity on Echinochloa crus-galli (Echinochloa crus-galli [23]): 100%
